Here are results for two compounds from US20030032807A1, “Method for the production of 1-amino -3-aryl -uracils” (priority 2000, published 2003).

A short description of the series: logP determination by HPLC on reversed-phase column (C 18), EEC Directive 79/831 Annex V.A8. The series is classed as physicochemical. The settings on record: reversed-phase HPLC column (C 18); at pH=2.3; acid range eluents 0.1% aqueous phosphoric acid/acetonitrile; 43° C. How it is done:
The determination of the logP value given in Example 1 was carried out according to EEC Directive 79/831 Annex V.A8 by HPLC (High Performance Liquid Chromatography) using a reversed-phase column (C 18). Temperature: 43° C. (a) Eluents for determination in the acid range: 0.1% aqueous phosphoric acid, acetonitrile; linear gradient from 10% acetonitrile to 90% acetonitrile—corresponding measurements are marked in Table 1 by ^a). (b) Eluents for determination in the neutral range: […] aqueous phosphate buffer solution, acetonitrile; linear gradient of 10% acetonitrile to 90% acetonitrile—corresponding measurements are marked in Table 1 by ^b). Calibration was carried out using unbranched alkan-2-ones (having from 3 to 16 carbon atoms), whose logP values are known (determination of logP values using the retention times by linear interpolation between two consecutive alkanones).

Turning to `CCS(=O)(=O)N(C(=O)c1ccccc1)c1cc(-n2c(=O)cc(C(F)(F)F)n(N)c2=O)c(F)cc1C#N` [Example 8, N-benzoyl-N-[2-cyano-5-(3-amino-2,6-dioxo-4-trifluoromethyl-3,6-dihydro-1-(2H)-pyrimidinyl)-4-fluorophenyl]ethanesulphonamide], the chromatographic logP (as a rule, a lipophilicity value derived from retention on a column) turned out to be 2.82.
`Nn1c(C(F)(F)F)cc(=O)n(-c2ccc(Br)cc2F)c1=O` [Example 1, 1-amino-3-(4-bromo-2-fluorophenyl)-6-trifluoromethyl-2,4-(1H,3H)-pyrimidinedione]: the chromatographic logP stood at 2.41.
